Results reported in patent US8546343B2, “Aminoglycoside antibiotics targeting bacterial 16S ribosomal RNA” (Eidgenoessische Technische Hochschule Zurich, priority 2007, dated 2013).

Legend:
Format in all cases: cell-based, Mycobacterium smegmatis
[1] = system: M. smegmatis ΔrrnB 1408G (16S rRNA position 1408 G, eukaryotic cytosolic ribosomes); assay: MIC, recombinant M. smegmatis with mutant ribosomes 1408G; settings: M. smegmatis ΔrrnB 1408G mutant ribosomes; 72 h at 37° C.
Excerpt: (§1) The strain used for introduction/selection of mutational alterations was a genetically modified derivative of Mycobacterium smegmatis carrying a single functional chromosomal rRNA operon (Sander et al. Mol. Microbiol. 1996, 22: 841-848). This strain, termed M. smegmatis rrn^−, allowed for the selection of mutational rRNA gene alterations using a plasmid carrying the rRNA gene with the respective mutational alteration.)
(§2) The rRNA gene carried on the plasmid encodes either the complete rRNA operon (Prammananan et al. Antimicrob. Agents Chemother. 1999, 43: 447-453) or a non-functional rRNA gene fragment of approximately 1.0 kb (Pfister et al. Antimicrob. Agents Chemother. 2003, 47: 1496-1502). PCR-mutagenesis in vitro was used to generate the mutagenized rRNA gene fragment. In the case of a partial rRNA gene fragment the mutagenized rRNA gene fragment was cloned into vectors pMV261 or pMV361 (Sander et al. Mol. Microbiol. 2002, 46: 1295-1304; Pfister et al. Antimicrob. Agents Chemother. 2003, 47: 1496-1502) to result in vectors carrying a partial rRNA gene fragment of approximately 1.0 kb with the mutational alteration introduced. In the case of plasmids carrying the complete rRNA operon the mutagenized rRNA gene fragment obtained by PCR was cloned into vectors pMV361 rRNA or pMV261 rRNA using appropriate restriction sites (Prammananan et al. Antimicrob. Agents Chemother. 1999, 43: 447-453). Vectors pMV361 rRNA and pMV261 rRNA carried a complete copy of the rRNA operon from M. smegmatis (Sander et al. Mol. Microbiol. 1997, 26: 469-480). Introduction of mutations into the plasmid encoded rRNA was confirmed by sequencing.
(§3) The single rRNA allelic derivative of M. smegmatis, i.e. M. smegmatis rrn, was used for transformation of the plasmids. The strain was made electro-competent and transformed according to standard techniques and as described previously (Sander et al. Mol. Microbiol. 1997, 26: 469-484). Following primary selection, the plasmid-encoded mutational rRNA gene alteration was transferred into the single chromosomal rRNA operon by means of RecA-mediated homologous recombination (Prammananan at al. Antimicrob. Agents Chemother. 1999, 43: 447-453). Introduction of the mutational rRNA gene alteration into the single functional chromosomal rRNA operon by gene conversion was confirmed by sequence determination.
(§4) Ribosomal drug susceptibility was studied by determining the minimal inhibitory concentrations, as described in detail in Pfister et al. 2003 and 2005 (see above).
(§5) The recombinants carrying the respective mutational alterations in the functional rRNA operon were colony-purified and subjected to determinations of minimal inhibitory concentrations (MIC) to determine ribosomal drug susceptibility. Cultures from single colonies were grown in LB medium supplemented with 0.05% Tween 80 and used for MIC tests in a microtiter plate format. Starting cultures contained 200 μl of bacterial cells at an optical density of 0.025 at 600 nm, and the respective drug was added in twofold series of dilution.
(§6) Key nucleotides which distinguish the prokaryotic from the eukaryotic decoding site are 16S rRNA positions 1408 (bacterial ribosome: A, eukaryotic cytosolic ribosomes: G) and 1491 (bacterial ribosomes: G, eukaryotic cytosolic ribosomes: A, eukaryotic mitochondrial ribosome: C).

[2] = system: M. smegmatis ΔrrnB 1491A (16S rRNA position 1491 A, eukaryotic cytosolic ribosomes); assay: MIC, recombinant M. smegmatis with mutant ribosomes 1491A; settings: M. smegmatis ΔrrnB 1491A mutant ribosomes; 72 h at 37° C.
Excerpt: as §1, §2, §3, §4, §5, §6

[3] = system: M. smegmatis ΔrrnB (bacterial ribosomes); assay: MIC, recombinant M. smegmatis with bacterial (wild-type) ribosomes; settings: 72 h at 37° C.
Excerpt: as §1, §2, §3, §4, §5, §6

[4] = system: M. smegmatis ΔrrnB 1491C (16S rRNA position 1491 C, eukaryotic mitochondrial ribosome); assay: MIC, recombinant M. smegmatis with mutant ribosomes 1491C; settings: M. smegmatis ΔrrnB 1491C mutant ribosomes; 72 h at 37° C.
Excerpt: as §1, §2, §3, §4, §5, §6

Row | Compound | minimal inhibitory concentrations ΔrrnB 1408G [1] [µg/mL] | minimal inhibitory concentrations ΔrrnB 1491A [2] [µg/mL] | minimal inhibitory concentrations ΔrrnB [3] [µg/mL] | minimal inhibitory concentrations ΔrrnB 1491C [4]
1 | NC[C@@H]1O[C@H](O[C@H]2[C@@H](O)[C@H](O[C@@H]3[C@@H](O)[C@H](N)C[C@H](N)[C@H]3O[C@H]3O[C@@H]4CO[C@@H](c5ccccc5[N+](=O)[O-])O[C@H]4[C@H](O)[C@H]3N)O[C@@H]2CO)[C@H](N)[C@@H](O)[C@@H]1O [Compound 5.16, 4′,6′-O-o-Nitrobenzylideneparomomycin] | 512 | 512 | 4 to 16 | >512 µg/mL
2 | CN(C)c1ccc([C@@H]2OC[C@H]3O[C@H](O[C@H]4[C@H](O[C@@H]5O[C@H](CO)[C@@H](O[C@H]6O[C@@H](CN)[C@@H](O)[C@H](O)[C@H]6N)[C@H]5O)[C@@H](O)[C@H](N)C[C@@H]4N)[C@H](N)[C@@H](O)[C@@H]3O2)cc1 [Compound 5.18, 4′,6′-O-p-Dimethylaminobenzylideneparomomycin] | 256 to 512 | 256 | 2 to 4 | >512 µg/mL
3 | NC[C@@H]1O[C@H](O[C@H]2[C@@H](O)[C@H](O[C@@H]3[C@@H](O)[C@H](N)C[C@H](N)[C@H]3O[C@H]3O[C@@H]4CO[C@@H](c5cccc6ccccc56)O[C@H]4[C@H](O)[C@H]3N)O[C@@H]2CO)[C@H](N)[C@@H](O)[C@@H]1O [Compound 5.19, 4′,6′-O-1-Naphthylideneparomomycin] | 512 | 256 to 512 | 4 to 8 | 256 µg/mL
4 | NC[C@@H]1O[C@H](O[C@H]2[C@@H](O)[C@H](O[C@@H]3[C@@H](O)[C@H](N)C[C@H](N)[C@H]3O[C@H]3O[C@@H]4COC(c5ccco5)O[C@H]4[C@H](O)[C@H]3N)O[C@@H]2CO)[C@H](N)[C@@H](O)[C@@H]1O (stereo partly shown) [Compound 5.21, 4′,6′-O-2-Furanylideneparomomycin] | >512 | >512 | 8 to 16 | >512 µg/mL
5 | NC[C@@H]1O[C@H](O[C@H]2[C@@H](O)[C@H](O[C@@H]3[C@@H](O)[C@H](N)C[C@H](N)[C@H]3O[C@H]3O[C@@H]4COC(c5cccs5)O[C@H]4[C@H](O)[C@H]3N)O[C@@H]2CO)[C@H](N)[C@@H](O)[C@@H]1O (stereo partly shown) [Compound 5.22, 4′,6′-O-2-Thiophenylideneparomomycin] | >512 | >512 | 8 to 16 | >512 µg/mL
6 | CC1OC[C@H]2O[C@H](O[C@H]3[C@H](O[C@@H]4O[C@H](CO)[C@@H](O[C@H]5O[C@@H](CN)[C@@H](O)[C@H](O)[C@H]5N)[C@H]4O)[C@@H](O)[C@H](N)C[C@@H]3N)[C@H](N)[C@@H](O)[C@@H]2O1 (stereo partly shown) [Compound 5.23, 4′,6′-O-Ethylideneparomomycin] | >512 | >512 | 32 | >512 µg/mL
7 | NC[C@@H]1O[C@H](O[C@H]2[C@@H](O)[C@H](O[C@@H]3[C@@H](O)[C@H](N)C[C@H](N)[C@H]3O[C@H]3O[C@@H]4CO[C@@H](Cc5ccccc5)O[C@H]4[C@H](O)[C@H]3N)O[C@@H]2CO)[C@H](N)[C@@H](O)[C@@H]1O [Compound 5.24] | 256 | 256 | 64 | 128 to 256 µg/mL
8 | NC[C@@H]1O[C@H](O[C@H]2[C@@H](O)[C@H](O[C@@H]3[C@@H](O)[C@H](N)C[C@H](N)[C@H]3O[C@H]3O[C@@H]4CO[C@@H](C5CCCCC5)O[C@H]4[C@H](O)[C@H]3N)O[C@@H]2CO)[C@H](N)[C@@H](O)[C@@H]1O [Compound 5.27, 4′,6′-O-Cyclohexylmethylideneparomomycin] | >512 | >512 | 32 to 64 | >512 µg/mL
9 | NCC1OC(OC2C(CO)OC(OC3C(O)C(N)CC(N)C3OC3OC(COCc4ccccc4)C(O)C(O)C3N)C2O)C(N)C(O)C1O (stereo not shown) [Compound 15, 6′-O-Benzylparomomycin] | >512 | >512 | 32 to 64 | >512 µg/mL
10 | NC[C@@H]1O[C@H](O[C@H]2[C@@H](O)[C@H](O[C@@H]3[C@@H](O)[C@H](N)C[C@H](N)[C@H]3O[C@H]3O[C@H](CO)[C@@H](OCc4ccc(C(F)(F)F)cc4)[C@H](O)[C@H]3N)O[C@@H]2CO)[C@H](N)[C@@H](O)[C@@H]1O [Compound 19b, 4′-p-(trifluoromethyl)benzylparomomycin] | >512 | >512 | 8 | ≧512 μg/ml
11 | NC[C@@H]1O[C@H](O[C@H]2[C@@H](O)[C@H](O[C@@H]3[C@@H](O)[C@H](N)C[C@H](N)[C@H]3O[C@H]3O[C@H](CO)[C@@H](OCOCc4ccccc4)[C@H](O)[C@H]3N)O[C@@H]2CO)[C@H](N)[C@@H](O)[C@@H]1O [Compound 19d, 4′-Benzyloxymethylparomomycin] | >512 | >512 | 16 | >512 µg/mL
12 | COc1ccc(COC2C(CO)OC(OC3C(N)CC(N)C(O)C3OC3OC(CO)C(OC4OC(CN)C(O)C(O)C4N)C3O)C(N)C2O)cc1 (stereo not shown) [Compound 19e, 4′-p-Methoxybenzylparomomycin] | >512 | >512 | 8 | >512 µg/mL
13 | NC[C@@H]1O[C@H](O[C@H]2[C@@H](O)[C@H](O[C@@H]3[C@@H](O)[C@H](N)C[C@H](N)[C@H]3O[C@H]3O[C@H](CN)[C@@H](O)[C@H](O)[C@H]3N)O[C@@H]2CO)[C@H](N)[C@@H](O)[C@@H]1O [Neomycin B, reference compound] | >512 | 4 | 0.5 to 1 | 16 to 32 µg/mL
